The record followed here is PubChem BioAssay AID1963828 (Molecular Pharmacology Branch, DTP, NCI, 2024).

The assay relates to 991263-137-R1-J2-PDC complex spheroid viability. The assay can be described thus: Anticancer human tumor 991263-137-R1-J2-PDC patient-derived colon adenocarcinoma cell line growth inhibition [POLQ]. To be noted: for viability, T/C: stronger effect = lower value. The method, then:
Multicellular complex tumor spheroid response to Polymerase (POL) inhibitors (novobiocin, ART-558, RP6685) in combination with a variety of drugs and investigational agents in selected tumor cell lines
The POL inhibitors (novobiocin, ART-558, and RP6685) were evaluated both individually and in combination with standard of care and investigational anticancer small molecules within a complex spheroid model of solid tumors. . Complex spheroids include a stromal component modeled by human endothelial cells (HUVEC) and fibroblasts modeled by human mesenchymal stem cells (MSCs). The concentration ranges selected for each drug and investigational agent were based upon clinically achievable concentrations if the clinical Cmax of the agent was known.
Compounds. The drugs and investigational agents: novobiocin (NSC847541), ART-558 (NSC835418), RP-6685 (NSC848927), peposertib (NSC802822), ceralasertib (NSC780249), elimusertib (NSC800525), camonsertib (NSC841442), AZD-1390 (NSC803789), olaparib (NSC753686), talazoparib (NSC767125), rucaparib (NSC756644), sotorasib (NSC818433), MRTX-1133 (NSC836407), SN-38 (NSC673596), topotecan (NSC609699), epotoside (NSC141540), doxorubicin (NSC123127), gemcitabine (NSC613327), 5-fluorouracil (NSC19893), paclitaxel (NSC125973), vemurafenib (NSC761431), MSA-2 (NSC828583), SN-011 (NSC837082), adavosertib (NSC754352), prexasertib (NSC758257), carboplatin (NSC241240) and oxaliplatin (NSC266046), were obtained from the National Cancer Institute (NCI) Developmental Therapeutics Program Chemical Repository (21). The FDA-approved anticancer drug set is available from the Developmental Therapeutics Program at https://dtp.cancer.gov/organization/dscb/obtaining/. […] The stock solutions were prepared in dimethyl sulfoxide (DMSO, Sigma-Aldrich, St. Louis, MO, cat. D2650), except for the platinum compounds which were prepared in saline (Quality Biological, Gaithersburg, MD, cat. 114-055-101), at 800-fold the tested concentration and stored at -70 degrees C prior to their use. All drugs and investigational agents were tested over a range starting from a high concentration at or near the clinical Cmax and decreasing in half-log increments. If the clinical Cmax for an agent had not been determined, the highest concentration tested was 10 microM, except for SN-38, which was tested at a high concentration of 1 microM.
Cell Culture. All cells were maintained in an incubator at 37 degrees C and 5% CO2 with 95% humidity. The PDC lines were cultured according to standard operating procedures established by the NCI PDMR (https://pdmr.cancer.gov). Table 3 of the manuscript, lists the cell lines along with the number of the three cell types plated to form the mct-spheroids and media for tumor cell growth. After thawing, all PDC lines, except 997537-175-T-J1-PDC and 415267-285-R-J2-PDC, were cultured in Matrigel-coated flasks prepared with a working solution of 1X Ham's F-12 nutrient mix, without supplementation (Thermo Fisher Scientific, cat. 11765054), 100 U/mL penicillin-streptomycin (Thermo Fisher Scientific, cat. 15140122), and 2.5% Matrigel (Corning Inc., Corning, NY, cat. 354248) for the first three passages. The two PDC lines 997537-175-T-J1-PDC and 415267-285-R-J2-PDC were cultured on uncoated flasks. The 857933-349-R-J2-PDC line was cultured in 6C/Colon 1B media containing advanced DMEM/F-12 (Thermo Fisher Scientific, cat. 12634028), 10 mM HEPES (Thermo Fisher Scientific, cat. 15630080), 1X GlutaMAX supplement (Thermo Fisher Scientific, cat. 35050061), 0.1 mg/mL primocin (InvivoGen, San Diego, CA, cat. ant-pm-2), 10% defined fetal bovine serum, heat inactivated (HyClone Laboratories Inc., Logan, UT, cat. SH30070.03HI), 50% L-WRN conditioned media (ATCC, cat. CRL-3276), 1.25 mM N-Acetyl-L-cysteine (Sigma-Aldrich, cat. A9165), 10 mM nicotinamide (Sigma-Aldrich, cat. N0636), 1X B-27 supplement (Thermo Fisher Scientific, cat. 17504044), 1X N-2 supplement (Thermo Fisher Scientific, cat. […]

Setting [1] is: curve of first compound, second compound 0.0316 µM.
Where [2] appears, read: curve of first compound, second compound 0.1 µM.
Where [3] appears, read: curve of first compound, second compound 0.316 µM.
The mark [4] stands for this setting: curve of first compound, second compound 1 µM.
[5] abbreviates: curve of first compound, second compound 3.16 µM.
[6] abbreviates: curve of first compound, second compound 10 µM.
Setting [7] is: second compound 0.0316 µM, first compound 0.00316 µM.
Where [8] appears, read: second compound 0.0316 µM, first compound 0.01 µM.
Setting [9] is: second compound 0.0316 µM, first compound 0.0316 µM.
Where [10] appears, read: second compound 0.0316 µM, first compound 0.1 µM.
[11] abbreviates: second compound 0.1 µM, first compound 0.00316 µM.
The mark [12] stands for this setting: second compound 0.1 µM, first compound 0.01 µM.
[13] abbreviates: second compound 0.1 µM, first compound 0.0316 µM.
Setting [14] is: second compound 0.1 µM, first compound 0.1 µM.
[15] abbreviates: second compound 0.316 µM, first compound 0.00316 µM.
Where [16] appears, read: second compound 0.316 µM, first compound 0.01 µM.
Where [17] appears, read: second compound 0.316 µM, first compound 0.0316 µM.
Where [18] appears, read: second compound 0.316 µM, first compound 0.1 µM.
Where [19] appears, read: second compound 1 µM, first compound 0.00316 µM.
[20] abbreviates: second compound 1 µM, first compound 0.01 µM.
Setting [21] is: second compound 1 µM, first compound 0.0316 µM.
The mark [22] stands for this setting: second compound 1 µM, first compound 0.1 µM.
Where [23] appears, read: second compound 3.16 µM, first compound 0.00316 µM.
Where [24] appears, read: second compound 3.16 µM, first compound 0.01 µM.
Where [25] appears, read: second compound 3.16 µM, first compound 0.0316 µM.
[26] abbreviates: second compound 3.16 µM, first compound 0.1 µM.
Where [27] appears, read: second compound 10 µM, first compound 0.00316 µM.
Setting [28] is: second compound 10 µM, first compound 0.01 µM.
The mark [29] stands for this setting: second compound 10 µM, first compound 0.0316 µM.
[30] abbreviates: second compound 10 µM, first compound 0.1 µM.

Values joined by “and” are separate entries in the source; they are usually repeats but may differ in a detail not shown here. Equal values may be shown once.
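Also: spheroids exposed to compounds for 7 days before readout.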

As for `CC[C@@]1(O)C(=O)OCc2c1cc1n(c2=O)Cc2cc3c(CN(C)C)c(O)ccc3nc2-1` + COC1C(OC(N)=O)C(O)C(Oc2ccc3c(O)c(NC(=O)c4ccc(O)c(CC=C(C)C)c4)c(=O)oc3c2C)OC1(C)C, the IC50 (usually the midpoint of a concentration-inhibition curve) was greater than 0.1 µM under setting [1]; greater than 0.1 µM under setting [2]; greater than 0.1 µM under setting [3]; greater than 0.1 µM under setting [4]; greater than 0.1 µM under setting [5]; greater than 0.1 µM under setting [6]. Further, the viability, T/C (usually the result in the treated group divided by that in the control group, in per cent) was 103% (second compound 0.0316 µM, first compound 0.000316 µM); 103% (second compound 0.0316 µM, first compound 0.001 µM); 106% under setting [7]; 103% under setting [8]; 100% under setting [9]; 87.3% under setting [10]. In addition, the viability, T/C is, setting by setting: (second compound 0.1 µM, first compound 0.000316 µM) 105%; (second compound 0.1 µM, first compound 0.001 µM) 125%; under setting [11], 98.3%; under setting [12], 79.6%; under setting [13], 86.4%; under setting [14], 71.4%. The viability, T/C (second compound 0.316 µM, first compound 0.000316 µM) came to 110%; the viability, T/C (second compound 0.316 µM, first compound 0.001 µM) was 110%; the viability, T/C under setting [15] worked out at 107%; the viability, T/C under setting [16] came out at 100%; the viability, T/C under setting [17] was 102%; the viability, T/C under setting [18] was determined as 84.5%. In addition, the viability, T/C is, setting by setting: (second compound 1 µM, first compound 0.000316 µM) 82.4%; (second compound 1 µM, first compound 0.001 µM) 106%; under setting [19], 97.7%; under setting [20], 93.2%; under setting [21], 75.7%; under setting [22], 86.4%. Moreover, the viability, T/C is, setting by setting: (second compound 3.16 µM, first compound 0.000316 µM) 93.9%; (second compound 3.16 µM, first compound 0.001 µM) 107%; under setting [23], 104%; under setting [24], 112%; under setting [25], 98.6%; under setting [26], 87.7%. In addition, the viability, T/C worked out at 92.8% (second compound 10 µM, first compound 0.000316 µM); 114% (second compound 10 µM, first compound 0.001 µM); 99.1% under setting [27]; 95.3% under setting [28]; 110% under setting [29]; 88.5% under setting [30].

As to `CCc1cc2c(N3CCc4c(cc(Cn5ccnc5)cc4-c4cn(C)nc4C(F)(F)F)C3=O)cc(C)nc2c(OC)n1`, the viability, T/C (compound 0.0316 µM) is 107% and 96% and 92.8%; the viability, T/C (compound 0.1 µM) was 101% and 98.5% and 96.4%; the viability, T/C (compound 3.16 µM) was 97.9% and 96.1% and 96.5%; the viability, T/C (compound 10 µM) is 93.5% and 82.6% and 105%. In addition, where the note is “curve of compound”, the IC50 is greater than 10 µM.

As to `CC(=O)O[C@H]1C(=O)[C@@]2(C)[C@H]([C@H](OC(=O)c3ccccc3)[C@]3(O)C[C@H](OC(=O)[C@H](O)[C@@H](NC(=O)c4ccccc4)c4ccccc4)C(C)=C1C3(C)C)[C@]1(OC(C)=O)CO[C@@H]1C[C@@H]2O`, the viability, T/C is 79.8% and 86.8% and 96.5% (compound 0.00949 µM); 85.2% and 89.3% and 87.6% (compound 0.03 µM); 85.4% and 84% and 87.8% (compound 0.0949 µM); 73.3% and 77.9% and 82.3% (compound 0.3 µM); 52.2% and 63.6% and 54.8% (compound 0.949 µM); 46.8% and 47.3% and 44.4% (compound 3 µM). For the same molecule, the IC50 (curve of compound) is 1.45 µM and 2.48 µM and 1.63 µM.

On to `CCc1c2c(nc3ccc(O)cc13)-c1cc3c(c(=O)n1C2)COC(=O)[C@]3(O)CC` + Cc1cccc(N(C)C(=O)C2C(O)CCN2c2nc(C)cc(C(F)(F)F)c2C#N)c1, for which the IC50 was 0.067 µM under setting [1]; 0.1 µM under setting [2]; 0.175 µM under setting [3]; 0.0723 µM under setting [4]; 0.105 µM under setting [5]; 0.153 µM under setting [6]. In addition, the viability, T/C is, setting by setting: under setting [7], 103%; under setting [8], 91.3%; under setting [9], 48.6%; under setting [10], 53.7%; (second compound 0.0316 µM, first compound 0.316 µM) 36.3%; (second compound 0.0316 µM, first compound 1 µM) 27.8%. For the same molecule, the viability, T/C is, setting by setting: under setting [11], 96.7%; under setting [12], 119%; under setting [13], 67.2%; under setting [14], 57.1%; (second compound 0.1 µM, first compound 0.316 µM) 36.1%; (second compound 0.1 µM, first compound 1 µM) 28.4%. Besides, the viability, T/C reads like this: under setting [15], 97.6%; under setting [16], 96%; under setting [17], 73.4%; under setting [18], 60.1%; (second compound 0.316 µM, first compound 0.316 µM) 41%; (second compound 0.316 µM, first compound 1 µM) 33.6%. For the same molecule, the viability, T/C reads like this: under setting [19], 111%; under setting [20], 111%; under setting [21], 64.3%; under setting [22], 50.6%; (second compound 1 µM, first compound 0.316 µM) 48.7%; (second compound 1 µM, first compound 1 µM) 32.5%. Further, the viability, T/C worked out at 109% under setting [23]; 92.5% under setting [24]; 70.4% under setting [25]; 53.5% under setting [26]; 33.9% (second compound 3.16 µM, first compound 0.316 µM); 36.6% (second compound 3.16 µM, first compound 1 µM). In addition, the viability, T/C turned out to be 108% under setting [27]; 81.5% under setting [28]; 67.9% under setting [29]; 53.2% under setting [30]; 46.2% (second compound 10 µM, first compound 0.316 µM); 24.5% (second compound 10 µM, first compound 1 µM).

Turning to `O=c1[nH]cc(F)c(=O)[nH]1`, the viability, T/C reads like this: (compound 0.0316 µM) 106% and 114% and 96.5%; (compound 0.1 µM) 90.3% and 99.3% and 92.5%; (compound 0.316 µM) 76.8% and 93.5% and 94.8%; (compound 1 µM) 94% and 95.8% and 91%; (compound 10 µM) 91.7% and 85.1% and 80.9%. For the same molecule, for the setting “curve of compound”, the 50% inhibitory concentration (IC50) was greater than 10 µM.

As to `COC1C(OC(N)=O)C(O)C(Oc2ccc3c(O)c(NC(=O)c4ccc(O)c(CC=C(C)C)c4)c(=O)oc3c2C)OC1(C)C` (stereo not given), the viability, T/C by setting is: (compound 0.0316 µM) 102% [middle of 12 runs]; (compound 0.316 µM) 103% [middle of 12 runs]. For the same molecule, the IC50 (compound alone, run of 01/08/2024) was greater than 10 µM.
